Reference: patent publication US11623919B2, “Heterocyclic P2X7 antagonists” (AXXAM S.P.A., priority 2017, dated 2023)

Tests used:
Assay in all cases: Screen Quest Fluo-8 No Wash Calcium Assay (Bz-ATP evoked Ca2+ influx, FLIPR)
Type in all cases: cell-based
P2X7 receptor [1] = molecular target: T1, P2X7 receptor (Mus musculus, UniProt Q9Z1M0); conditions: mP2X7; HEK-293 cells stably transfected with P2X7 receptor, Bz-ATP at EC80, Fluo-8 NW; potency ranges A-D
T1 construct: mP2X7 (IC50; nM); other: mP2X7; HEK-293 cells stably transfected with P2X7 receptor, Bz-ATP at EC80, Fluo-8 NW; potency
T1 sequence (Q9Z1M0 1-595): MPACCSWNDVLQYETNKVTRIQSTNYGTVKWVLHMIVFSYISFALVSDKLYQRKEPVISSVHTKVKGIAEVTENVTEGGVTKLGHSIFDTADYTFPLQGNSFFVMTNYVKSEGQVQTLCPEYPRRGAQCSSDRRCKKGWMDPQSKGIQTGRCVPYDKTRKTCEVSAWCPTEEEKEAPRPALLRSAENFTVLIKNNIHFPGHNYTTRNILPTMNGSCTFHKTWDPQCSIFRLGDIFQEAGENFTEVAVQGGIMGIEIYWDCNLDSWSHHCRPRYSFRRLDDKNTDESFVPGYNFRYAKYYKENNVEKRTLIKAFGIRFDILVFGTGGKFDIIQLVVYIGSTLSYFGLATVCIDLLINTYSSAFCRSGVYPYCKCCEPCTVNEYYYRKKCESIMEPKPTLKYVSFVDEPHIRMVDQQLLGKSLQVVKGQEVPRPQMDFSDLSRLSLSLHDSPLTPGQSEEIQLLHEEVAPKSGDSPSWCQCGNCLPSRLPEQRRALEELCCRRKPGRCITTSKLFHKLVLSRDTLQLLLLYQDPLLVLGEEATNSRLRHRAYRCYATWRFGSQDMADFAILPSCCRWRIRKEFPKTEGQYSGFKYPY
Method in brief: (§1)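 HEK-293 cells stably expressing P2X7 were loaded with Fluo-8 NW for 1 h at RT, then given compound, and 5 min later Bz-ATP at EC80. Fluorescence was read by FLIPR in low divalent cation buffer (0.3 mM Ca2+, 0 mM Mg2+). IC50 came from percent inhibition relative to reference antagonist A438079.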

P2X7 receptor [2] = molecular target: T2, P2X7 receptor (Rattus norvegicus, UniProt Q64663); conditions: rP2X7; HEK-293 cells stably transfected with P2X7 receptor, Bz-ATP at EC80, Fluo-8 NW; potency ranges A-D
T2 construct: rP2X7 (IC50; nM); other: rP2X7; HEK-293 cells stably transfected with P2X7 receptor, Bz-ATP at EC80, Fluo-8 NW; potency
T2 sequence (Q64663 1-595): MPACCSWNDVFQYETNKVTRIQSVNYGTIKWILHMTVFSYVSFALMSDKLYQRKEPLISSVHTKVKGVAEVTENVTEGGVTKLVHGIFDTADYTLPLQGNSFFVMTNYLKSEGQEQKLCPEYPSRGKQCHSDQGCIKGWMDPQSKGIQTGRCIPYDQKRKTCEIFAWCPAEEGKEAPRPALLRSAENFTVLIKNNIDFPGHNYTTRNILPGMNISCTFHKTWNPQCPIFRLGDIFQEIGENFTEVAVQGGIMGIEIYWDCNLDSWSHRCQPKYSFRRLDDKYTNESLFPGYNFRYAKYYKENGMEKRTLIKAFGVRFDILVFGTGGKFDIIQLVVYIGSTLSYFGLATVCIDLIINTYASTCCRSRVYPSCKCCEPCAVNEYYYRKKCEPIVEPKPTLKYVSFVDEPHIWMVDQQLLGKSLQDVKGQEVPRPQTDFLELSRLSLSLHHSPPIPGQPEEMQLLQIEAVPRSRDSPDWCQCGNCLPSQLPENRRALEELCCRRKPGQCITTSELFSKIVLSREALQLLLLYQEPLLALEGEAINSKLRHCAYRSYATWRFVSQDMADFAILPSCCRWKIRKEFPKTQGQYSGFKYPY
Method in brief: as §1

P2X7 receptor [3] = molecular target: T3, P2X7 receptor (Homo sapiens, UniProt Q99572); parameters: hP2X7 (IC50; nM); other: hP2X7; HEK-293 cells stably transfected with P2X7 receptor, Bz-ATP at EC80, Fluo-8 NW; potency; conditions: hP2X7; HEK-293 cells stably transfected with P2X7 receptor, Bz-ATP at EC80, Fluo-8 NW; potency ranges A-D
T3 sequence (Q99572 1-595): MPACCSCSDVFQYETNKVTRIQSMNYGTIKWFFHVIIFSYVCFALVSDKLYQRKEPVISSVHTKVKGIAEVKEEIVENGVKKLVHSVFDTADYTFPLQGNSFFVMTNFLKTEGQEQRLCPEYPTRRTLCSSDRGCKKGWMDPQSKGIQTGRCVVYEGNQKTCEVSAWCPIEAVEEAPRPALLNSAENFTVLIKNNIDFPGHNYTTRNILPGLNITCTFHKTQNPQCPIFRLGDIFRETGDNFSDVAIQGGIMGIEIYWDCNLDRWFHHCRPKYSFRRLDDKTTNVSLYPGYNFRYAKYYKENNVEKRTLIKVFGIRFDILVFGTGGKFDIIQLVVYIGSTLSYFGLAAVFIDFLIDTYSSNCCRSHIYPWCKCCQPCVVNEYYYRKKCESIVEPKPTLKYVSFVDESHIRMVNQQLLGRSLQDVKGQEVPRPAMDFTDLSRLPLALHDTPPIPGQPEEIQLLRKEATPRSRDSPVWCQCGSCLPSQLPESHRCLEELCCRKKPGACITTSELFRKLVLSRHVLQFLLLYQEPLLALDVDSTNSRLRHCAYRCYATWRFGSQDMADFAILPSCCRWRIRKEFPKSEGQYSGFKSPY
Method in brief: as §1

Row | SMILES | IC50 (P2X7 receptor [1]) | IC50 (P2X7 receptor [2]) | IC50 (P2X7 receptor [3])
1 | O=c1onc(Cc2c(F)cccc2Cl)n1Cc1ccccn1 [Example 62, 3-[(2-chloro-6-fluorophenyl)methyl]-4-(pyridin-2-ylmethyl)-4,5-dihydro-1,2,4-oxadiazol-5-one] | > 10000 nM | > 10000 nM | > 10000 nM
2 | COc1ccc(Cn2c(Cc3ccc(F)cc3)noc2=O)c(OC)c1 [Example 2, 4-[(2,4-dimethoxyphenyl)methyl]-3-[(4-fluorophenyl)methyl]-4,5-dihydro-1,2,4-oxadiazol-5-one] | > 10000 nM | > 10000 nM | 1000 to 10000 nM
3 | O=c1onc(Cc2cccc(C(F)(F)F)c2Cl)n1Cc1ccc(F)cc1 [Example 72, 3-{[2-chloro-3-(trifluoromethyl)phenyl]methyl}-4-[(4-fluorophenyl)methyl]-4,5-dihydro-1,2,4-oxadiazol-5-one] | > 10000 nM | > 10000 nM | > 10000 nM
4 | O=c1onc(Cc2ccc(F)cc2Cl)n1CC1CCC(F)(F)CC1 [Example 162, 3-[(2-chloro-4-fluorophenyl)methyl]-4-[(4,4-difluorocyclohexyl)methyl]-4,5-dihydro-1,2,4-oxadiazol-5-one] | > 10000 nM | > 10000 nM | > 10000 nM
5 | Cc1nn(C)c(C)c1Cc1noc(=O)n1Cc1c(F)cccc1Cl [Example 213, 4-[(2-chloro-6-fluorophenyl)methyl]-3-[(trimethyl-1H-pyrazol-4-yl)methyl]-4,5-dihydro-1,2,4-oxadiazol-5-one] | > 10000 nM | > 10000 nM | 1000 to 10000 nM
6 | O=c1onc(Cc2c(F)cccc2Cl)n1Cc1cccnc1 [Example 42, 3-[(2-chloro-6-fluorophenyl)methyl]-4-(pyridin-3-ylmethyl)-4,5-dihydro-1,2,4-oxadiazol-5-one] | > 10000 nM | > 10000 nM | > 10000 nM
7 | CC(c1c(F)cccc1Cl)c1noc(=O)n1Cc1ccc(F)cc1 (stereo not drawn) [Example 78, 3-[1-(2-chloro-6-fluorophenyl)ethyl]-4-[(4-fluorophenyl)methyl]-4,5-dihydro-1,2,4-oxadiazol-5-one] | > 10000 nM | > 10000 nM | > 10000 nM

Other lines, results leading:

Row | IC50 (P2X7 receptor [1]) | IC50 (P2X7 receptor [2]) | IC50 (P2X7 receptor [3]) | SMILES
8 | 1000 to 10000 nM | 200 to 1000 nM | 200 to 1000 nM | O=c1onc(Cc2ccccc2)n1CC1CCC(F)(F)CC1 [Example 161, 3-benzyl-4-[(4,4-difluorocyclohexyl)methyl]-4,5-dihydro-1,2,4-oxadiazol-5-one]
9 | < 200 nM | < 200 nM | < 200 nM | O=c1onc(CN2CCOc3ccccc32)n1CC1CCCCC1 [Example 230, 4-(cyclohexylmethyl)-3-(3,4-dihydro-2H-1,4-benzoxazin-4-ylmethyl)-4,5-dihydro-1,2,4-oxadiazol-5-one]
10 | 1000 to 10000 nM | 200 to 1000 nM | 1000 to 10000 nM | Cc1cc(F)ccc1Cn1c(CC2CCC(F)(F)CC2)noc1=O [Example 171, 3-[(4,4-difluorocyclohexyl)methyl]-4-[(4-fluoro-2-methylphenyl)methyl]-4,5-dihydro-1,2,4-oxadiazol-5-one]
11 | 200 to 1000 nM | 200 to 1000 nM | 200 to 1000 nM | O=c1onc(CCc2c(F)cccc2Cl)n1Cc1ccc(F)cc1 [Example 145, 3-[2-(2-chloro-6-fluorophenyl)ethyl]-4-(4-fluorobenzyl)-1,2,4-oxadiazol-5(4H)-one]
12 | 1000 to 10000 nM | 1000 to 10000 nM | 200 to 1000 nM | O=c1onc(Cc2ccc(F)cc2Cl)n1Cc1c(F)cccc1Cl [Example 14, 3-[(2-chloro-4-fluorophenyl)methyl]-4-[(2-chloro-6-fluorophenyl)methyl]-4,5-dihydro-1,2,4-oxadiazol-5-one]
13 | 1000 to 10000 nM | 1000 to 10000 nM | 1000 to 10000 nM | O=c1onc(Cc2cccc(F)c2)n1Cc1ccc(F)cc1 [Example 107, 3-[(3-fluorophenyl)methyl]-4-[(4-fluorophenyl)methyl]-4,5-dihydro-1,2,4-oxadiazol-5-one]
